Test results from patent US7501421B2, “Benzoxazole and benzothiazole derivatives as 5-hydroxytryptamine-6 ligands” (Wyeth, priority 2006, dated 2009).
Where a name gives a salt, the structure may show the parent alone.

Target: human cloned 5-HT6 receptors (Homo sapiens, UniProt P50406)
Assay: Evaluation of 5-HT6 binding affinity ([3H]-LSD radioligand binding)

Sequence of human cloned 5-HT6 receptors (P50406 whole entry): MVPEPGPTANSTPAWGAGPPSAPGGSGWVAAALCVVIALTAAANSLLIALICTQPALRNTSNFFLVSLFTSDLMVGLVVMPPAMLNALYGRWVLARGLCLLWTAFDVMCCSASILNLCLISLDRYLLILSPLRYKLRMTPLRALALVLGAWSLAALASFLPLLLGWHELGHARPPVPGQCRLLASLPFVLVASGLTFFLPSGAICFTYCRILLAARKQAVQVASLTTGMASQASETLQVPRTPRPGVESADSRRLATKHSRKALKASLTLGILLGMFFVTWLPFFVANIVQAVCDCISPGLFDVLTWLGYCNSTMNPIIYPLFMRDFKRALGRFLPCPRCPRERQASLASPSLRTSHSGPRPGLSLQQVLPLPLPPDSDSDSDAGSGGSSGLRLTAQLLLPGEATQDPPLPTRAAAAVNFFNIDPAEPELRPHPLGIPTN

SMILES	Ki
O=S(=O)(c1ccccc1)c1cccc2oc(N3CCNCC3)nc12 [Example 13]	67 nM
CN1CCN(c2nc3c(S(=O)(=O)c4cccc5ccccc45)cccc3o2)CC1 [Example 22, 2-(4-Methylpiperazin-1-yl)-4-(1-naphthylsulfonyl)benzoxazole Dihydrochloride]	10 nM
O=S(=O)(c1cccc2ccccc12)c1cccc2oc(N3CCN(C4CCCC4)CC3)nc12 [Example 30]	78 nM

Other lines, results leading:

Ki	SMILES
91 nM	O=S(=O)(c1cccc2ccccc12)c1cccc2oc(N3CCN(C4CCCCC4)CC3)nc12 [Example 31]
7 nM	O=S(=O)(c1cccc2ccccc12)c1cccc2nc(N3CCNCC3)oc12 [Example 34, 7-(1-naphthylsulfonyl)-2-piperazin-1-ylbenzoxazole Dihydrochloride]
500 nM	O=S(=O)(c1ccc2nc(N3CCNCC3)sc2c1)c1cccc2ccccc12 [Example 41, 6-(1-Naphthylsulfonyl)-2-piperazin-1-ylbenzothiazole Dihydrochloride]
